{
  "source": "ChEMBL document CHEMBL4842340",
  "about": "“Development of Cagrilintide, a Long-Acting Amylin Analogue” (J Med Chem, 2021)",
  "key": {"Insulin (Homo sapiens) [1]": {"target": "Insulin (Homo sapiens) (UniProt P01308)", "sequence (P01308 whole entry)": "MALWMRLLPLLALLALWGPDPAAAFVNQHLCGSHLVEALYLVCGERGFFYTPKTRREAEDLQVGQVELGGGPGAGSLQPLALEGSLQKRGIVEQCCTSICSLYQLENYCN", "test": "Effect on insulin (unknown origin) amyloid fibril formation assessed as lag time in glycyl-glycine buffer at pH 4 measured after 45 hrs by thioflavin-T fluorescence assay"}, "Insulin (Homo sapiens) [2]": {"target": "Insulin (Homo sapiens) (UniProt P01308)", "test": "Effect on insulin (unknown origin) amyloid fibril formation assessed as peptide recovery in glycyl-glycine buffer at pH 4 measured after 45 hrs by thioflavin-T fluorescence assay relative to control", "set-up": "concentration or dose not given beside the values"}, "Homo sapiens [3]": {"species_on_record": "Homo sapiens", "test": "Ratio of IC50 for displacement of [125I]-calcitonin from human calcitonin receptor expressed in tk-ts 13 cells to IC50 for displacement of [125I]-amylin from human AMY3R (CTR+RAMP3) expressed in BHK-13 cells", "type": "cell-based"}, "Rattus norvegicus [4]": {"species_on_record": "Rattus norvegicus", "test": "Ratio of IC50 for displacement of [125I]-calcitonin from rat calcitonin receptor expressed in tk-ts 13 cells to IC50 for displacement of [125I]-amylin from rat AMY3R (CTR+RAMP3) expressed in BHK-13 cells", "type": "cell-based"}, "Homo sapiens [5]": {"species_on_record": "Homo sapiens", "test": "Ratio of EC50 for human calcitonin receptor expressed in BHK570 cells to EC50 for human AMY3R (CT+RAMP3) expressed in Hollex1 cells", "type": "cell-based"}, "[6]": {"test": "Agonist activity at human calcitonin receptor expressed in BHK570 cells assessed as increase in intracellular cAMP concentration incubated for 3 hrs in absence of albumin by CRE luciferase reporter gene assay", "type": "cell-based", "conditions": "BHK570, 3 h"}, "Rattus norvegicus [7]": {"tested_on": "Rattus norvegicus", "test": "Reduction in food intake in Sprague-Dawley rat at 3 nmol/kg, sc administered as single dose measured after 24 to 48 hrs relative to control", "type": "functional", "set-up": "scale not given: the % may be the effect or the level left", "conditions": "time 24-48 hrs"}, "[8]": {"test": "Displacement of [125I]-calcitonin from rat calcitonin receptor expressed in tk-ts 13 cells measured after 120 mins by scintillation proximity assay", "type": "cell-based", "conditions": "tk-ts13"}, "[9]": {"test": "Displacement of [125I]-calcitonin from human calcitonin receptor expressed in tk-ts 13 cells measured after 120 mins by scintillation proximity assay", "type": "cell-based", "conditions": "tk-ts13"}, "[10]": {"test": "Agonist activity at human AMY3R (CT+RAMP3) expressed in Hollex1 cells incubated for 3 hrs by luminescence assay", "type": "cell-based", "conditions": "Hollex1, 3 h"}, "[11]": {"test": "Solubility of the compound in lactate at pH 4 by UPLC analysis", "type": "physicochemical", "conditions": "lactate buffer"}, "[12]": {"test": "Displacement of [125I]-amylin from rat AMY3R (CTR+RAMP3) expressed in BHK-13 cells measured after 120 mins by scintillation proximity assay", "type": "cell-based"}, "[13]": {"test": "Solubility of the compound in lactate at pH 3 by UPLC analysis", "type": "physicochemical", "conditions": "lactate buffer"}, "Rattus norvegicus [14]": {"species_on_record": "Rattus norvegicus", "test": "Ratio of EC50 for rat calcitonin receptor expressed in BHK-13 cells to EC50 for rat AMY3R (CT+RAMP3) expressed in tk-ts13 cells", "type": "cell-based"}, "[15]": {"test": "Displacement of [125I]-amylin from human AMY3R (CTR+RAMP3) expressed in BHK-13 cells measured after 120 mins by scintillation proximity assay", "type": "cell-based"}, "Rattus norvegicus [16]": {"tested_on": "Rattus norvegicus", "test": "Reduction in food intake in Sprague-Dawley rat at 3 nmol/kg, sc administered as single dose measured upto 24 hrs relative to control", "type": "functional", "set-up": "scale not given: the % may be the effect or the level left", "conditions": "time hrs <=24"}},
  "note": "*1 amine or outer side, *2 acyl side, *3 side chain or, on linkers, in order; H or OH if unused. Where a SMILES comes first, the peptide text is derived from it. Bridges are numbered along the chain shown (N, C = ends). The star is where a group is joined. C20 diacid = O=C(O)CCCCCCCCCCCCCCCCCCC(=O)*; γGlu = O=C(O)[C@H](CCC(=O)[*:2])N[*:1]",
  "data": [
    {"smiles": "CC[C@H](C)[C@H](NC(=O)[C@@H](CCC(=O)O)NC(=O)CNC(=O)[C@H](Cc1ccccc1)NC(=O)[C@H](CC(N)=O)NC(=O)[C@H](CC(N)=O)NC(=O)[C@H](CO)NC(=O)[C@H](CO)NC(=O)[C@H](CCCNC(=N)N)NC(=O)[C@H](Cc1cnc[nH]1)NC(=O)[C@H](CC(C)C)NC(=O)[C@H](Cc1ccccc1)NC(=O)[C@H](CCC(=O)O)NC(=O)[C@H](C)NC(=O)[C@H](CC(C)C)NC(=O)[C@H](CCCNC(=N)N)NC(=O)[C@H](CCC(N)=O)NC(=O)[C@@H](NC(=O)[C@H](C)NC(=O)[C@@H]1CSSC[C@H](NC(=O)[C@H](Cc2cnc[nH]2)NC(=O)CC[C@H](NC(=O)CCCCCCCCCCCCCCCCCCC(=O)O)C(=O)O)C(=O)N[C@@H](CC(N)=O)C(=O)N[C@@H]([C@@H](C)O)C(=O)N[C@@H](C)C(=O)N[C@@H]([C@@H](C)O)C(=O)N1)[C@H](C)O)C(=O)N[C@@H](CC(C)C)C(=O)N[C@@H](CO)C(=O)N[C@@H](CCCNC(=N)N)C(=O)N[C@H](C(=O)N[C@@H](CC(N)=O)C(=O)N[C@H](C(=O)NCC(=O)N[C@@H](CO)C(=O)N[C@@H](CC(N)=O)C(=O)N[C@H](C(=O)N[C@@H](Cc1ccc(O)cc1)C(N)=O)[C@@H](C)O)C(C)C)[C@@H](C)O", "values": [
      {"measurement": "TIME", "setting": "Insulin (Homo sapiens) [1]", "result": 0, "unit": "h"},
      {"measurement": "Activity", "setting": "Insulin (Homo sapiens) [2]", "result": 0, "unit": "%"},
      {"measurement": "Ratio IC50", "setting": "Homo sapiens [3]", "result": 2},
      {"measurement": "Ratio IC50", "setting": "Rattus norvegicus [4]", "result": 3},
      {"measurement": "Ratio EC50", "setting": "Homo sapiens [5]", "result": 2}
    ]},
    {"smiles": "CC[C@H](C)[C@H](NC(=O)[C@@H]1CCCN1C(=O)CNC(=O)[C@H](Cc1ccccc1)NC(=O)[C@H](CC(N)=O)NC(=O)[C@H](CC(N)=O)NC(=O)[C@H](CO)NC(=O)[C@H](CO)NC(=O)[C@H](Cc1c[nH]cn1)NC(=O)[C@H](CCCNC(=N)N)NC(=O)[C@H](CC(C)C)NC(=O)[C@H](Cc1ccccc1)NC(=O)[C@H](CCC(=O)O)NC(=O)[C@H](C)NC(=O)[C@H](CC(C)C)NC(=O)[C@H](CCCNC(=N)N)NC(=O)[C@H](CCC(N)=O)NC(=O)[C@@H](NC(=O)[C@H](C)NC(=O)[C@@H]1CSSC[C@H](NC(=O)[C@H](CCCCN)NC(=O)CC[C@H](NC(=O)CCCCCCCCCCCCCCCCCCC(=O)O)C(=O)O)C(=O)N[C@@H](CC(N)=O)C(=O)N[C@@H]([C@@H](C)O)C(=O)N[C@@H](C)C(=O)N[C@@H]([C@@H](C)O)C(=O)N1)[C@@H](C)O)C(=O)N[C@@H](CC(C)C)C(=O)N1CCC[C@H]1C(=O)N1CCC[C@H]1C(=O)N[C@H](C(=O)N[C@@H](CC(N)=O)C(=O)N[C@H](C(=O)NCC(=O)N[C@@H](CO)C(=O)N[C@@H](CC(N)=O)C(=O)N[C@H](C(=O)N[C@@H](Cc1ccc(O)cc1)C(N)=O)[C@@H](C)O)C(C)C)[C@@H](C)O", "note": "({C20 diacid-γGlu}-KCNTATCATQRLAEFLRHSSNNFGPILPPTNVGSNTY-NH2; disulfide 2-7)", "values": [
      {"measurement": "TIME", "setting": "Insulin (Homo sapiens) [1]", "result": 45, "unit": "h"},
      {"measurement": "EC50", "setting": "[6]", "result": 0.447, "unit": "nM"},
      {"measurement": "Activity", "setting": "Rattus norvegicus [7]", "result": 8, "unit": "%"},
      {"measurement": "IC50", "setting": "[8]", "result": 2.06, "unit": "nM"},
      {"measurement": "Activity", "setting": "Insulin (Homo sapiens) [2]", "result": 85, "unit": "%"},
      {"measurement": "IC50", "setting": "[9]", "result": 0.811, "unit": "nM"},
      {"measurement": "EC50", "setting": "[10]", "result": 0.1, "unit": "nM"},
      {"measurement": "solubility", "setting": "[11]", "result": 200, "unit": "µM"},
      {"measurement": "IC50", "setting": "[12]", "result": 0.532, "unit": "nM"},
      {"measurement": "solubility", "setting": "[13]", "result": 200, "unit": "µM"},
      {"measurement": "Ratio EC50", "setting": "Rattus norvegicus [14]", "result": 0.5},
      {"measurement": "IC50", "setting": "[15]", "result": 0.35, "unit": "nM"},
      {"measurement": "Ratio IC50", "setting": "Rattus norvegicus [4]", "result": 4},
      {"measurement": "Activity", "setting": "Rattus norvegicus [16]", "result": 30, "unit": "%"},
      {"measurement": "Ratio EC50", "setting": "Homo sapiens [5]", "result": 4}
    ]}
  ]
}
